# pIC50: −log10 of the molar value.
# How the values were obtained:
# Test in all cases: KAM-matrix competition in K562 lysate;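 as to 0.001 uM KAM: median log10 fold change of treatment over DMSO control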;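 as to 0.01 uM KAM: median log10 fold change of treatment over DMSO control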;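 as to 0.1 uM KAM: median log10 fold change of treatment over DMSO control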;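 as to 1 uM KAM: median log10 fold change of treatment over DMSO control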;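 as to 10 uM KAM: median log10 fold change of treatment over DMSO control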
# Type in all cases: binding
# PKMYT1 = molecular target: T1, PKMYT1 (Homo sapiens, UniProt Q99640);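 as to 0.001 uM KAM: median log10 fold change of treatment over DMSO control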;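 as to 0.01 uM KAM: median log10 fold change of treatment over DMSO control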;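 as to 0.1 uM KAM: median log10 fold change of treatment over DMSO control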;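 as to 1 uM KAM: median log10 fold change of treatment over DMSO control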;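 as to 10 uM KAM: median log10 fold change of treatment over DMSO control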
# T1 construct: endogenous in cells; host or cells: K562
# T1 sequence (Q99640 1-499): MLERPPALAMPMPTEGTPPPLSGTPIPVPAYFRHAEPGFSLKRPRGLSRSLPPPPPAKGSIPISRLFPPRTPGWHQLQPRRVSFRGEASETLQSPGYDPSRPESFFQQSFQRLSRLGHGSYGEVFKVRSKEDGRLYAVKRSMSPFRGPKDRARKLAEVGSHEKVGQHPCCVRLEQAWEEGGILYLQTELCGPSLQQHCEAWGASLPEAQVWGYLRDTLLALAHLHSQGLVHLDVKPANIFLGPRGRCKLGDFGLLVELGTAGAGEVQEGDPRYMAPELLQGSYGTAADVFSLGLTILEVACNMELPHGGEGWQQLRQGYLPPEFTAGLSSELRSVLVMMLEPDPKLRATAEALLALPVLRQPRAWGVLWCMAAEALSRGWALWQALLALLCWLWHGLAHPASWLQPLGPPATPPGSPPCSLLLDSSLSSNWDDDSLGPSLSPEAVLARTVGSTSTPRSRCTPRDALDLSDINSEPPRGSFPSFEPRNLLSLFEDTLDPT
# Description: (§1) Supplement 12953_2017_125_MOESM1_ESM.zip/MS_Supp Info.xlsx, sheet "KAM" | column: 10 uM KAM; 1 uM KAM; 0.1 uM KAM; 0.01 uM KAM; 0.001 uM KAM; RB50
# CSNK2A1 = molecular target: T2, CSNK2A1 (Homo sapiens, UniProt P68400)
# T2 construct: endogenous in cells; host or cells: K562
# Description: as §1
# MAP3K4 = molecular target: T3, MAP3K4 (Homo sapiens, UniProt Q9Y6R4);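 as to 0.001 uM KAM: median log10 fold change of treatment over DMSO control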;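 as to 0.01 uM KAM: median log10 fold change of treatment over DMSO control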;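 as to 0.1 uM KAM: median log10 fold change of treatment over DMSO control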;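 as to 1 uM KAM: median log10 fold change of treatment over DMSO control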;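 as to 10 uM KAM: median log10 fold change of treatment over DMSO control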
# T3 construct: endogenous in cells; host or cells: K562
# Description: as §1
# ROCK2 = molecular target: T4, ROCK2 (Homo sapiens, UniProt O75116);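 as to 0.001 uM KAM: median log10 fold change of treatment over DMSO control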;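 as to 0.01 uM KAM: median log10 fold change of treatment over DMSO control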;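 as to 0.1 uM KAM: median log10 fold change of treatment over DMSO control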;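 as to 1 uM KAM: median log10 fold change of treatment over DMSO control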;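 as to 10 uM KAM: median log10 fold change of treatment over DMSO control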
# T4 construct: endogenous in cells; host or cells: K562
# Description: as §1
# NEK8 = molecular target: T5, NEK8 (Homo sapiens, UniProt Q86SG6)
# T5 construct: endogenous in cells; host or cells: K562
# T5 sequence (Q86SG6 1-692): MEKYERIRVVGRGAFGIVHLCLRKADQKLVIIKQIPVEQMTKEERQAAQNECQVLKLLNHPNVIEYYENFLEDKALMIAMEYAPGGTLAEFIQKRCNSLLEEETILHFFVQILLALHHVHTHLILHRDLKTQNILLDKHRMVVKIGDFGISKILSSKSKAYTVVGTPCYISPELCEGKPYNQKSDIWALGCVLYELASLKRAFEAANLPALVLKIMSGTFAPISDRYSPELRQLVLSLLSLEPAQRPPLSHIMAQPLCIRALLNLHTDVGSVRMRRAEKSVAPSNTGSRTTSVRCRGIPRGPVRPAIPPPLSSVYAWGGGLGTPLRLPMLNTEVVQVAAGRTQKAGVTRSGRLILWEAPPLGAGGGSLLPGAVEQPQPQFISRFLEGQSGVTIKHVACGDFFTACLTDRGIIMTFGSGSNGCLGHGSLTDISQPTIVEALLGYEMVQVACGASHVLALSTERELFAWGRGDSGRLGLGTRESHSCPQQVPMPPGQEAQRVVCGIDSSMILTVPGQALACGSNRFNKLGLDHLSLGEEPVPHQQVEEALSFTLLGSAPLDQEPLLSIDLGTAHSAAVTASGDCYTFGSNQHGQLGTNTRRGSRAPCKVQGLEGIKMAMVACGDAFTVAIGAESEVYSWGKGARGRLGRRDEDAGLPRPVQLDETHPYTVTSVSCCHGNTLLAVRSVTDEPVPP
# Description: as §1
# ATR = molecular target: T6, ATR (Homo sapiens, UniProt Q13535);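 as to 0.001 uM KAM: median log10 fold change of treatment over DMSO control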;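 as to 0.01 uM KAM: median log10 fold change of treatment over DMSO control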;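 as to 0.1 uM KAM: median log10 fold change of treatment over DMSO control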;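 as to 1 uM KAM: median log10 fold change of treatment over DMSO control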;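 as to 10 uM KAM: median log10 fold change of treatment over DMSO control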
# T6 construct: endogenous in cells; host or cells: K562
# Description: as §1
# MAP3K2 = molecular target: T7, MAP3K2 (Homo sapiens, UniProt Q9Y2U5)
# T7 construct: endogenous in cells; host or cells: K562
# T7 sequence (Q9Y2U5 1-619): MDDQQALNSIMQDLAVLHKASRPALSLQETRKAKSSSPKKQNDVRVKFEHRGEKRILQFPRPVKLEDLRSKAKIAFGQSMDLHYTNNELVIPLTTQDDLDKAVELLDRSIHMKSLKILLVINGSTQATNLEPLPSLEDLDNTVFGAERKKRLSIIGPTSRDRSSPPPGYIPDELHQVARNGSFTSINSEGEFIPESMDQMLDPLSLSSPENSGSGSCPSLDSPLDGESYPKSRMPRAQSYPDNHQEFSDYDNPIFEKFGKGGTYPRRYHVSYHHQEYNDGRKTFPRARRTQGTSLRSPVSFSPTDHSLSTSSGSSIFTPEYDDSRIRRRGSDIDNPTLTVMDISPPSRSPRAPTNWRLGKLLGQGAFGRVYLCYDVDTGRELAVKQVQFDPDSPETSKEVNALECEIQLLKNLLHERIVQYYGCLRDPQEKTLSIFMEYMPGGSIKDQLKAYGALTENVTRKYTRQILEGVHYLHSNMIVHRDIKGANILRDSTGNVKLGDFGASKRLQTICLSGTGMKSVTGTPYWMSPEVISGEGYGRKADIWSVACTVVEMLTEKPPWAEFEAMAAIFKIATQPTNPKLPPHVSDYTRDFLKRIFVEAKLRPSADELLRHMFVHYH
# Description: as §1
# CDC7 = molecular target: T8, CDC7 (Homo sapiens, UniProt O00311);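 as to 0.001 uM KAM: median log10 fold change of treatment over DMSO control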;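 as to 0.01 uM KAM: median log10 fold change of treatment over DMSO control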;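 as to 0.1 uM KAM: median log10 fold change of treatment over DMSO control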;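 as to 1 uM KAM: median log10 fold change of treatment over DMSO control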;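 as to 10 uM KAM: median log10 fold change of treatment over DMSO control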
# T8 construct: endogenous in cells; host or cells: K562 lysate
# Description: as §1
# [1] = KAM 0.001-10 uM, read-out: RB50 (the source's name)
# [2] = read-out: RB50 (the source's name)
compound,measurement,setting,value
N#CCc1ccc(Nc2nc(NCCCN)cc(Nc3cc(C4CC4)[nH]n3)n2)cc1 [KAM],pIC50,PKMYT1; [1],< 5.00
same,0.001 uM KAM,PKMYT1; relative to 0 uM KAM = 0,-0.05315
same,0.01 uM KAM,PKMYT1; relative to 0 uM KAM = 0,-0.03451
same,0.1 uM KAM,PKMYT1; relative to 0 uM KAM = 0,-0.2607
same,1 uM KAM,PKMYT1; relative to 0 uM KAM = 0,-0.4249
same,10 uM KAM,PKMYT1; relative to 0 uM KAM = 0,-0.2726
same,median Log10 fold change,CSNK2A1; 0.001 uM KAM,-0.001285
same,median Log10 fold change,CSNK2A1; 0.01 uM KAM,-0.02001
same,median Log10 fold change,CSNK2A1; 0.1 uM KAM,-0.3204
same,median Log10 fold change,CSNK2A1; 1 uM KAM,-0.6577
same,median Log10 fold change,CSNK2A1; 10 uM KAM,-0.7357
same,pIC50,CSNK2A1; [2],6.93
same,pIC50,MAP3K4; [1],< 5.00
same,0.001 uM KAM,MAP3K4; relative to 0 uM KAM = 0,-0.03643
same,0.01 uM KAM,MAP3K4; relative to 0 uM KAM = 0,-0.006572
same,0.1 uM KAM,MAP3K4; relative to 0 uM KAM = 0,-0.06704
same,1 uM KAM,MAP3K4; relative to 0 uM KAM = 0,-0.09539
same,10 uM KAM,MAP3K4; relative to 0 uM KAM = 0,-0.1299
same,pIC50,ROCK2; [1],< 5.00
same,0.001 uM KAM,ROCK2; relative to 0 uM KAM = 0,0.005547
same,0.01 uM KAM,ROCK2; relative to 0 uM KAM = 0,0.004918
same,0.1 uM KAM,ROCK2; relative to 0 uM KAM = 0,-0.08686
same,1 uM KAM,ROCK2; relative to 0 uM KAM = 0,-0.1587
same,10 uM KAM,ROCK2; relative to 0 uM KAM = 0,-0.127
same,median Log10 fold change,NEK8; 0.001 uM KAM,-0.1269
same,median Log10 fold change,NEK8; 0.01 uM KAM,-0.1123
same,median Log10 fold change,NEK8; 0.1 uM KAM,-0.2566
same,median Log10 fold change,NEK8; 1 uM KAM,-0.2815
same,median Log10 fold change,NEK8; 10 uM KAM,-0.455
same,pIC50,NEK8; [2],6.06
same,pIC50,ATR; [1],< 5.00
same,0.001 uM KAM,ATR; relative to 0 uM KAM = 0,-0.04695
same,0.01 uM KAM,ATR; relative to 0 uM KAM = 0,0.002576
same,0.1 uM KAM,ATR; relative to 0 uM KAM = 0,-0.08926
same,1 uM KAM,ATR; relative to 0 uM KAM = 0,-0.01418
same,10 uM KAM,ATR; relative to 0 uM KAM = 0,0.03196
same,median Log10 fold change,MAP3K2; 0.001 uM KAM,-0.0298
same,median Log10 fold change,MAP3K2; 0.01 uM KAM,0.004839
same,median Log10 fold change,MAP3K2; 0.1 uM KAM,-0.103
same,median Log10 fold change,MAP3K2; 1 uM KAM,-0.3096
same,median Log10 fold change,MAP3K2; 10 uM KAM,-0.4027
same,pIC50,MAP3K2; [2],5.88
same,pIC50,CDC7; [1],< 5.00
same,0.001 uM KAM,CDC7; relative to 0 uM KAM = 0,-0.007298
same,0.01 uM KAM,CDC7; relative to 0 uM KAM = 0,-0.03198
same,0.1 uM KAM,CDC7; relative to 0 uM KAM = 0,-0.1182
same,1 uM KAM,CDC7; relative to 0 uM KAM = 0,-0.2032
same,10 uM KAM,CDC7; relative to 0 uM KAM = 0,-0.1853

# — paper PMC5513037, “Examining the influence of specificity ligands and ATP-competitive ligands on the overall effectiveness of bivalent kinase inhibitors” (Proteome Science, 2017)
